Test results published in patent US9790235B2, “MK2 inhibitors and uses thereof” (Celgene CAR LLC, priority 2014, dated 2017).
Like-named read-outs stand apart in the source and are kept apart here.

Legend:
MK2 [1] = target: T1, MK2 (Homo sapiens (Human), UniProt P49137); assay: MK2 cellular assay, total and phospho-Hsp27 (Serine 78) by MSD ELISA (Thp1); format: cell-based; conditions: Thp-1 cells, 1 hour compound, 50 ng/mL LPS 45 minutes, p-HSP27 (Ser78)/total HSP27; read-out: pHSP27 signaling EC50
Protocol: MK2 Cellular Assay—Detection of Total and Phospho-Hsp27 (Serine 78) by MSD ELISA (Thp1)
Compounds of the invention were assayed in Thp-1 human acute monocytic leukemia cells to measure inhibition of MK2 activity. Thp-1 cells were grown in culture medium containing RPMI/10% FBS (fetal bovine serum)/0.05 mM 2-mercaptoethanol. 72 hours prior to the assay, 8×10^4 cells per well were plated in a 96 well flat bottom plate along with 10 ng/mL phorbol 12-myristate 13-acetate (PMA). Cells were cultured in an incubator at 37° C. until needed for the assay. Cell plate media was replaced with culture media just prior to assay while compound dilutions were being made.
Stock solutions of test compound, 1 mM in DMSO, were prepared. 0.9 μl of test compound was added to 300 μl cell media for a starting concentration of 3000 nM. […] Cell plate media was discarded, followed by addition of 100 μl of the compound containing media. The resulting preparation was incubated at 37° C. for 1 hour.
Test compound-containing cell assay media was removed and the cells were washed once with cell assay media. Cell assay media containing 50 ng/mL LPS (lipopolysaccharide) was added to the each well and incubated for 45 minutes. Following LPS incubation, the cells were washed once with PBS (phosphate-buffered saline) and lysed with 60 μl Cell Extraction Buffer (Invitrogen #FNN0011) plus protease and phosphatase inhibitors. The plate was then stored at −80° C. until further analysis.
The MULTI-SPOT Phospho(Ser78)/Total HSP27 ELISA Assay kit was purchased from Meso Scale […] (MSD; catalog #K15128D). […] The pre-coated MSD plate was blocked with 150 μL/well of 3% BSA in MSD wash buffer. The preparation was placed on a shaker at room temperature for an hour. While the ELISA plate was blocked, the cell assay plate stored at −80° C. was placed on a shaker at 4° C. for 1 hour to thaw.
The blocked MSD plate was washed on a plate washer, tapping out the last bit of wash solution, followed by addition of 30 μl of the lysate from the cell assay plate. The preparation was covered and incubated for 1 hour at room temperature. The lysate was removed, the plate was washed 3 times on a plate washer and the last bit of wash buffer was tapped out and replaced with 25 μl/well detection antibody (anti-total HSP27 conjugated with an electrochemiluminescent compound, MSD SULFO-TAG label, supplied in kit) made in 1% BSA/MSD wash buffer. The plate was incubated for 1 hour at room temperature on a shaker, followed by 3 washes. The last bit of wash buffer was tapped out. 150 μl/well 1×MSD read buffer was added (4× read buffer supplied with kit) and the plate was analyzed on the MSD SECTOR® Imager for analysis. The SECTOR® Imager measures intensity of emitted light to provide a quantitative measure of phosphorylated HSP27 (Ser78) and total HSP27 present in the sample. The relative percent phosphoprotein in a sample is calculated by dividing the Phospho-HSP27 signal intensity over the total HSP27 signal intensity measured in each well.

MK2 [2] = target: T1, MK2
[3] = target: p38α activated, mitogen-activated protein kinase-activated protein kinase 2 (MAPKAP-K2 or MK2) enzyme (Homo sapiens (Human), UniProt P49137); assay: MK2 Omnia continuous-read kinase assay for compound potency; format: biochemical; conditions: [MK-2]=0.4 nM, [ATP]=10 μM, [ST3-Sox]=10 μM; read-out: MK2 IC50
Text: Mitogen-Activated Protein Kinase-Activated Protein Kinase 2 Omnia® Assay for Compound Potency Assessment:
The protocol below describes a continuous-read kinase assay optimized to measure potency of compounds against p38α activated, mitogen-activated protein kinase-activated protein kinase 2 (MAPKAP-K2 or MK2) enzyme. Further details of this assay are described by Life Technologies, Carlsbad, Calif. on their website at the following URL: http://tools.lifetechnologies.com/content/sfs/manuals/omnia_kinase_assay_man.pdf.
[Reagent] used: • [MK-2]=0.4 nM, • [ATP]=10 μM and • [ST3-Sox]=10 μM (ATP^appKM=10 μM)
Kinase reactions were started with the addition of 45 μL of the ATP-peptide substrate S/T3-Sox mix and monitored every 71 seconds for 120 minutes at λex360/λem485 in a Synergy H4 plate reader from BioTek (Winooski, Vt.) at room temperature.
Background signals from the no enzyme control wells were subtracted from all progress curves. The initial linear portions of the net progress curves were fit according to a linear equation to yield the slope and percentage of inhibition (% inhibition) at each compound concentration. The net progress curves obtained during the first two hours of reactions were also fit according to an ascending single-exponential equation (Eq. 1) to yield kobs values at each compound concentration. Plots of % Inhibition versus inhibitor concentrations were fit according to a dose-response equation (Eq. 2) to generate IC50 and Hill slope values while plots of kobs versus inhibitor concentration were fit according to Equation 3 (Eq. 3) to generate apparent kinact/KI values using the GraphPad PRISM software (Version 6.00; GraphPad San Diego, Calif.).
[formula] where F is the fluorescence intensity from the plate reader, V0 is a constant reflecting the relationship between the instrument readout and product concentration, t is time, e is Euler's number, and kobs is the observed inactivation rate constant.
[formula] where % Inhibition is percentage of inhibition, IC50 is half maximal inhibitory concentration, [I] is the inhibitor concentration, and n is the Hill slope.

[4] = percentage of modified protein after 60 minutes at room temperature, 10-fold excess of compound, MALDI (I-1 to I-50), magnetic bead MALDI (I-51 to I-129)
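For Mass Modification in this document: covalent binding read from centroid mass shift of compound-treated versus untreated intact MK2, shift divided by compound molecular weight, giving fraction of total protein bound.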

T1 sequence (P49137 whole entry): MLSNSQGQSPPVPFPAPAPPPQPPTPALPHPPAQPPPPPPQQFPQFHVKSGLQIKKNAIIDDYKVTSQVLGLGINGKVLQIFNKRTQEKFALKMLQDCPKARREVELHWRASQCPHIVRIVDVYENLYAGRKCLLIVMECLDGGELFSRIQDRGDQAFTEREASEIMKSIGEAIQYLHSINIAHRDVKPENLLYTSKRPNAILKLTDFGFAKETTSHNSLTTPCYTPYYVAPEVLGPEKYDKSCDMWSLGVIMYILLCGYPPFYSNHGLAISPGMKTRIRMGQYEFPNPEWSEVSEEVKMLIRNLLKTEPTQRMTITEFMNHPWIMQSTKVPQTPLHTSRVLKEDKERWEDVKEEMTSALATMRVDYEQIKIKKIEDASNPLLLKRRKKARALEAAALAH
p38α activated, mitogen-activated protein kinase-activated protein kinase 2 (MAPKAP-K2 or MK2) enzyme, sequence (P49137 whole entry): as above

IC50 [3]	SMILES	EC50 (MK2 [1])	Mass Modification (MK2 [2]; [4])	Mass Modification (MK2 [2])
< 0.1 µM	C[C@@H]1CNc2c(sc3ccc4nc(Nc5nc(Cl)nc(N6CCN(C)CC6)n5)ccc4c23)C(=O)N1 [I-10, (R)-3-((4-chloro-6-(4-methylpiperazin-1-yl)-1,3,5-triazin-2-yl)amino)-10-methyl-9,10,11,12-tetrahydro-8H-[1,4]diazepino[5′,6′:4,5]thieno[3,2-f]quinolin-8-one]	0.101 to 0.5 µM	G (mass modification ≦30%)	
	C[C@@H]1CNc2c(sc3ccc4nc(Nc5nccc(Cl)n5)ccc4c23)C(=O)N1 [I-13, (R)-3-((4-chloropyrimidin-2-yl)amino)-10-methyl-9,10,11,12-tetrahydro-8H-[1,4]diazepino[5′,6′:4,5]thieno[3,2-f]quinolin-8-one]	> 1 µM		G (key: E: mass modification of ≧70%; F: mass modification of 31-69%; G: mass modification ≦30%)
	C[C@@H]1CNc2c(sc3ccc4nc(Nc5nc(Cl)ncc5C(=O)NC5COC5)ccc4c23)C(=O)N1 [I-20, (R)-2-chloro-4-((10-methyl-8-oxo-9,10,11,12-tetrahydro-8H-[1,4]diazepino[5′,6′:4,5]thieno[3,2-f]quinolin-3-yl)amino)-N-(oxetan-3-yl)pyrimidine-5-carboxamide]	> 1 µM	G (mass modification ≦30%)	
	C[C@@H]1CNc2c(sc3ccc4nc(Nc5nc(Cl)ncc5C(=O)NC5CC5)ccc4c23)C(=O)N1 [I-21, (R)-2-chloro-N-cyclopropyl-4-((10-methyl-8-oxo-9,10,11,12-tetrahydro-8H-[1,4]diazepino[5′,6′:4,5]thieno[3,2-f]quinolin-3-yl)amino)pyrimidine-5-carboxamide]	> 1 µM	G (mass modification ≦30%)	
	CN(C)C[C@@H]1CNc2c(sc3ccc4nc(Nc5cc(F)ncn5)ccc4c23)C(=O)N1 [I-31, (S)-10-((dimethylamino)methyl)-3-((6-fluoropyrimidin-4-yl)amino)-9,10,11,12-tetrahydro-8H-[1,4]diazepino[5′,6′:4,5]thieno[3,2-f]quinolin-8-one]	> 1 µM	F (mass modification of 31-69%)	
< 0.1 µM	C[C@@H]1CNc2c(sc3ccc4nc(Nc5cc(F)nc(OCCN6CCN(C)CC6)n5)ccc4c23)C(=O)N1 [I-48, (R)-3-((6-fluoro-2-(2-(4-methylpiperazin-1-yl)ethoxy)pyrimidin-4-yl)amino)-10-methyl-9,10,11,12-tetrahydro-8H-[1,4]diazepino[5′,6′:4,5]thieno[3,2-f]quinolin-8-one]	> 1 µM		
< 0.1 µM	C[C@@H]1CNc2c(sc3ccc4nc(Oc5nc(Cl)ncc5CN5CCC[C@H]5C)ccc4c23)C(=O)N1 [I-99, (R)-3-((2-chloro-5-(((R)-2-methylpyrrolidin-1-yl)methyl)pyrimidin-4-yl)oxy)-10-methyl-9,10,11,12-tetrahydro-8H-[1,4]diazepino[5′,6′:4,5]thieno[3,2-f]quinolin-8-one]	< 0.1 µM		
< 0.1 µM	C[C@@H]1CNc2c(sc3ccc4nc(Oc5nc(Cl)ncc5CN5CCC[C@@H]5C)ccc4c23)C(=O)N1 [I-101]	< 0.1 µM		
0.501 to 0.999 µM	C[C@@H]1CNc2c(sc3ccc4nc(Oc5ncncc5CN(C)C(C)(C)C)ccc4c23)C(=O)N1 [I-104, (R)-3-((5-((tert-butyl(methyl)amino)methyl)pyrimidin-4-yl)oxy)-10-methyl-9,10,11,12-tetrahydro-8H-[1,4]diazepino[5′,6′:4,5]thieno[3,2-f]quinolin-8-one]	> 1 µM		
0.101 to 0.5 µM	CO[C@H]1CCCN(Cc2cnc(Cl)nc2Oc2ccc3c(ccc4sc5c(c43)NC[C@@H](C)NC5=O)n2)C1 [I-106, (R)-3-((2-chloro-5-(((S)-3-methoxypiperidin-1-yl)methyl)pyrimidin-4-yl)oxy)-10-methyl-9,10,11,12-tetrahydro-8H-[1,4]diazepino[5′,6′:4,5]thieno[3,2-f]quinolin-8-one]	< 0.1 µM		
	C[C@@H]1CNc2c(sc3ccc4nc(Oc5cc(CNC(C)(C)C)nc(Cl)n5)ccc4c23)C(=O)N1 [I-117, (R)-3-((6-((tert-butylamino)methyl)-2-chloropyrimidin-4-yl)oxy)-10-methyl-9,10,11,12-tetrahydro-8H-[1,4]diazepino[5′,6′:4,5]thieno[3,2-f]quinolin-8-one]	< 0.1 µM		

SMILES	IC50 [3]	EC50 (MK2 [1])	Mass Modification (MK2 [2]; [4])	Mass Modification (MK2 [2])
C[C@@H]1CNc2c(sc3ccc4nc(Nc5nc(Cl)ncc5C(N)=O)ccc4c23)C(=O)N1 [I-9, (R)-2-chloro-4-((10-methyl-8-oxo-9,10,11,12-tetrahydro-8H-[1,4]diazepino[5′,6′:4,5]thieno[3,2-f]quinolin-3-yl)amino)pyrimidine-5-carboxamide]	< 0.1 µM	< 0.1 µM	E (mass modification of ≧70%)	
C[C@@H]1CNc2c(sc3ccc4nc(Nc5ccnc(S(C)(=O)=O)n5)ccc4c23)C(=O)N1 [I-14, (R)-10-methyl-3-((2-(methylsulfonyl)pyrimidin-4-yl)amino)-9,10,11,12-tetrahydro-8H-[1,4]diazepino[5′,6′:4,5]thieno[3,2-f]quinolin-8-one]	< 0.1 µM	> 1 µM	G (mass modification ≦30%)	
C[C@@H]1CNc2c(sc3ccc4nc(Nc5cc(Cl)ncc5C(N)=O)ccc4c23)C(=O)N1 [I-15, (R)-6-chloro-4-((10-methyl-8-oxo-9,10,11,12-tetrahydro-8H-[1,4]diazepino[5′,6′:4,5]thieno[3,2-f]quinolin-3-yl)amino)nicotinamide]	< 0.1 µM	> 1 µM	G (mass modification ≦30%)	
C[C@@H]1CNc2c(sc3ccc4nc(Nc5nc(Cl)ncc5C#N)ccc4c23)C(=O)N1 [I-16, (R)-2-chloro-4-((10-methyl-8-oxo-9,10,11,12-tetrahydro-8H-[1,4]diazepino[5′,6′:4,5]thieno[3,2-f]quinolin-3-yl)amino)pyrimidine-5-carbonitrile]	< 0.1 µM	< 0.1 µM	E (mass modification of ≧70%)	
C[C@@H]1CNc2c(sc3ccc4nc(Oc5nc(Cl)ncc5-c5cccnc5)ccc4c23)C(=O)N1 [I-123, (R)-3-((2-chloro-5-(pyridin-3-yl)pyrimidin-4-yl)oxy)-10-methyl-9,10,11,12-tetrahydro-8H-[1,4]diazepino[5′,6′:4,5]thieno[3,2-f]quinolin-8-one]	< 0.1 µM	< 0.1 µM		
